Laboratory results from ChEMBL document CHEMBL5465560, “Selectivity Literature for EUbOPEN Chemogenomic Library” (2024).
Blank lines part the entries; values can stand above or below the molecule they belong to.

Key:
[1] = biological target: RAF proto-oncogene serine/threonine-protein kinase (Homo sapiens) (UniProt P04049); test: Selectivity interaction (Millipore kinase profiler) EUB0000124b RAF1; settings: at 10 µM
[2] = biological target: STE20-like serine/threonine-protein kinase (Homo sapiens, UniProt Q9H2G2); test: Selectivity interaction (ActivX KiNativ screen (kinase selectivity in THP-1 cell lysates)) EUB0000639a SLK; format: subcellular; settings: lysate, at 5 µM
STE20-like serine/threonine-protein kinase, sequence (Q9H2G2 whole entry, looked up): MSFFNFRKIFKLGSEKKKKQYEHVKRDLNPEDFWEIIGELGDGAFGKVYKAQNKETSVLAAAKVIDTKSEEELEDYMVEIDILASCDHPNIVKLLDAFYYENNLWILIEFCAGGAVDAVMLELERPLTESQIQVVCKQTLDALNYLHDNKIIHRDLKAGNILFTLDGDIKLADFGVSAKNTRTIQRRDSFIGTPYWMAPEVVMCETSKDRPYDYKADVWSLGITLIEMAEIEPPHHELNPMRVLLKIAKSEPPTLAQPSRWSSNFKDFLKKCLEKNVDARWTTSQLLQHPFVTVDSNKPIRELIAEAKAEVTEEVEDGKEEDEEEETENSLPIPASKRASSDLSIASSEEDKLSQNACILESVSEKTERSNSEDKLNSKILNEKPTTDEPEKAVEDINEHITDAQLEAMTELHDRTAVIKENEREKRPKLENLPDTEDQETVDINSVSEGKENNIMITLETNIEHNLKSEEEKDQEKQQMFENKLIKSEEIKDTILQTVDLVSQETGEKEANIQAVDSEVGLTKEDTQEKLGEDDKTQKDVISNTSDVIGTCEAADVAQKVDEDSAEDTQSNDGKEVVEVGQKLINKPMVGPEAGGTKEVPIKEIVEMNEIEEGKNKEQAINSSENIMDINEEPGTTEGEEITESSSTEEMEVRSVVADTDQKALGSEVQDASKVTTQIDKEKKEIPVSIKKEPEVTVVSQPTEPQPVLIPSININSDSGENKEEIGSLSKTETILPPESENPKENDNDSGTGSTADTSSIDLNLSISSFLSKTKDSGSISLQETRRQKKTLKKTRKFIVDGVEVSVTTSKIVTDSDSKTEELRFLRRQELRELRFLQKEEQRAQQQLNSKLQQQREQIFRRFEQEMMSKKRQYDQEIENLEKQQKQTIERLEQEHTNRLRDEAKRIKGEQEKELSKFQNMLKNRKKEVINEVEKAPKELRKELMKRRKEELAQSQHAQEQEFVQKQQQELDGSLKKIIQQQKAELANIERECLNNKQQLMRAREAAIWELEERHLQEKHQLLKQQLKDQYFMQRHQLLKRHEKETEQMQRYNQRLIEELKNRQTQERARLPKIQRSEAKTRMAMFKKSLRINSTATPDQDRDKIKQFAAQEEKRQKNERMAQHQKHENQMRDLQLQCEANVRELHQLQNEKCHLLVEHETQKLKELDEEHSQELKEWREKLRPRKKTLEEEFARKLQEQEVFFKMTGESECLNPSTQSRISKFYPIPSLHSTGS

[3] = biological target: T1, Serine/threonine-protein kinase Nek9 (Homo sapiens) (UniProt Q8TD19); test: Selectivity interaction (ActivX KiNativ screen (kinase selectivity in THP-1 cell lysates)) EUB0000639a NEK9; format: subcellular; settings: lysate, at 1 µM
T1 sequence (whole entry): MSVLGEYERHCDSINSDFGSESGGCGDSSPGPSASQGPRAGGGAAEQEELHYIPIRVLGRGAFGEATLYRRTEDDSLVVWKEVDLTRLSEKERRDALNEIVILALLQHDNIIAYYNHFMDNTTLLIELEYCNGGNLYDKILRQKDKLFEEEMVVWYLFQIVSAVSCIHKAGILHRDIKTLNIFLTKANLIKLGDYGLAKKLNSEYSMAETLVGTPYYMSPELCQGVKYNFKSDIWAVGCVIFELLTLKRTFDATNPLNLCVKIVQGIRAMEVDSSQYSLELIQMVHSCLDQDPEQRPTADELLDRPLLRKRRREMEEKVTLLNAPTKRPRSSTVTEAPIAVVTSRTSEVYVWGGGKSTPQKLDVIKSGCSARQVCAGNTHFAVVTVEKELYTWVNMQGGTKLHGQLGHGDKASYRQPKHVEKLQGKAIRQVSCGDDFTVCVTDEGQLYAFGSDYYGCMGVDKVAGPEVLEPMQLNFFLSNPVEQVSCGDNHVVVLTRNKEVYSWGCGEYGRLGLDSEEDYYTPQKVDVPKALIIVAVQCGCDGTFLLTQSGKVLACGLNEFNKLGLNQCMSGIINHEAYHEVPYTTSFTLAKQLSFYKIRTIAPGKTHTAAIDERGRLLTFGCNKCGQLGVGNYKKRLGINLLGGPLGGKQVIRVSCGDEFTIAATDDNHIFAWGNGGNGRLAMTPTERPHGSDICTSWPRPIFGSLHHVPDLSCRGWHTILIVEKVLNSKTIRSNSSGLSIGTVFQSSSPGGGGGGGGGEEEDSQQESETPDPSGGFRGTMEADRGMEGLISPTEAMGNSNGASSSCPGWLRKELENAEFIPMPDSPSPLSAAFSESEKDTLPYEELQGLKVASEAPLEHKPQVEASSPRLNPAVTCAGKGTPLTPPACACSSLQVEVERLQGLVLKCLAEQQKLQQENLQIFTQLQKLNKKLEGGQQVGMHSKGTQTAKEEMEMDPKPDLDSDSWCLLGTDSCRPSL

[4] = biological target: T2, Histone-arginine methyltransferase CARM1 (Homo sapiens) (UniProt Q86X55); settings: KMS-26, at 3 µM
T2 sequence (whole entry): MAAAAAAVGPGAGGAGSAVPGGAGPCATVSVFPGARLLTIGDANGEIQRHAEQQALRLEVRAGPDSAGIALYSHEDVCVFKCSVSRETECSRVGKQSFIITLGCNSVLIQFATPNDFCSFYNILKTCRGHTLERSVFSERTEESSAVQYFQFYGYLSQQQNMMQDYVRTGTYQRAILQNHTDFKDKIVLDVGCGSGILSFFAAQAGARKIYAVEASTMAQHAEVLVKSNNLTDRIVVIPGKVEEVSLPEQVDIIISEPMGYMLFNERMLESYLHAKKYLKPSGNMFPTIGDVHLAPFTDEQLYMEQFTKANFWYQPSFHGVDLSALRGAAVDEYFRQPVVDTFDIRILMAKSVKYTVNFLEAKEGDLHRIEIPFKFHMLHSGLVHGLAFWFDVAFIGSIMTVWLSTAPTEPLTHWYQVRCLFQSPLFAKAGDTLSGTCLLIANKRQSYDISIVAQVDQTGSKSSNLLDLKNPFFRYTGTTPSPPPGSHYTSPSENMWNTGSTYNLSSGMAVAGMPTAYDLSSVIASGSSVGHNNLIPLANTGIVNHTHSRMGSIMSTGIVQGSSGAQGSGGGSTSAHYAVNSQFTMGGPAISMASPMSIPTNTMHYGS

[5] = tested on: Tyrosine-protein kinase ABL1 (Homo sapiens), P00519 [M351T]; test: (§1) Selectivity interaction (LanthaScreen Eu Kinase Binding Assay) EUB0001632a ABL1; settings: at 10 µM
[6] = tested on: Tyrosine-protein kinase ABL1 (Homo sapiens), P00519 [Q252H]; test: as §1; settings: at 10 µM
[7] = tested on: Tyrosine-protein kinase ABL1 (Homo sapiens), P00519 [H396P]; test: as §1; settings: at 10 µM
[8] = biological target: Phosphorylase b kinase gamma catalytic chain, skeletal muscle/heart isoform (Homo sapiens) (UniProt Q16816); test: Selectivity interaction (KinomeScan (DiscoverX)) EUB0001079a PHKG1; settings: at 1 µM
[9] = biological target: 5-hydroxytryptamine receptor 1E (Homo sapiens) (UniProt P28566); test: Selectivity interaction (GPCR panel (PDSP screen)) EUB0001079a HTR1E; settings: at 10 µM
[10] = biological target: Hepatocyte growth factor receptor (Homo sapiens, UniProt P08581); settings: at 1 µM
Hepatocyte growth factor receptor, sequence (P08581 whole entry): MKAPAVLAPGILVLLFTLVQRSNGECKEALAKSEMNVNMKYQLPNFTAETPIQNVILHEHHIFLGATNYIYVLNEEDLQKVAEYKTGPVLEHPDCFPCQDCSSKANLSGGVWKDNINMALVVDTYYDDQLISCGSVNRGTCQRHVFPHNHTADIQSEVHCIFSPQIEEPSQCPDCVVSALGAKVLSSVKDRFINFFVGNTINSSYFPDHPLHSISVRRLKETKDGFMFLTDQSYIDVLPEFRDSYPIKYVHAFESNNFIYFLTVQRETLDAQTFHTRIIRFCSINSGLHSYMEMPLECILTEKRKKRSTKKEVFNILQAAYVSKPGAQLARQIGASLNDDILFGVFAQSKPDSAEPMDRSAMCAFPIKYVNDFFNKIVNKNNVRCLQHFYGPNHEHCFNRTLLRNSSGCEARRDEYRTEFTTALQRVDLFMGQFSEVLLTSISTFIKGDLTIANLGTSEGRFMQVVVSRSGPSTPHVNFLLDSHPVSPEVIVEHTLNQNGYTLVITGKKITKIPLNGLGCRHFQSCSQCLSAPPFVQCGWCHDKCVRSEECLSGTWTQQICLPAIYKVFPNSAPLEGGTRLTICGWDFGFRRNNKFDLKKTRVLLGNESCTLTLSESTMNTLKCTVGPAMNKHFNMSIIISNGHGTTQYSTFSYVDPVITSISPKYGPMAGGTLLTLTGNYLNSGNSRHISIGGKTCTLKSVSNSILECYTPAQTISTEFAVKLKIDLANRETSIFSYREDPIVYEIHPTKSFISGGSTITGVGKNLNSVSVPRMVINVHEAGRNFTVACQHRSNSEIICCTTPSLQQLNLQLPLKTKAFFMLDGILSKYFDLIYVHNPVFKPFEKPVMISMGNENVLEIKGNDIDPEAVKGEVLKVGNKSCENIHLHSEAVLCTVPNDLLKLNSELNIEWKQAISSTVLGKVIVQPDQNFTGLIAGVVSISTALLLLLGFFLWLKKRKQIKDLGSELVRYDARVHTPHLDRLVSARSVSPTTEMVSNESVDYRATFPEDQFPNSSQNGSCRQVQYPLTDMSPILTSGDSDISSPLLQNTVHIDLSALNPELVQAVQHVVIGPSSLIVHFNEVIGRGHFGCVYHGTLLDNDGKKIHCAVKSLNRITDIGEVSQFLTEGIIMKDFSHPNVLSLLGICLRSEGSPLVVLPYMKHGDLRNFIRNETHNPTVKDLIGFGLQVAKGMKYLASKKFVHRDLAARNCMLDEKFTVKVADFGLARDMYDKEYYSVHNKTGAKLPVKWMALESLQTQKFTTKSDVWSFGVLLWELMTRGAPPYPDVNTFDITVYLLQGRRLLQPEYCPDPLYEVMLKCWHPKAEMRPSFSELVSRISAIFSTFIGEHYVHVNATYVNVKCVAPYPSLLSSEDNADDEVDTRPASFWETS

[11] = biological target: Serine/threonine-protein kinase PLK3 (Homo sapiens, UniProt Q9H4B4); test: Selectivity interaction (KinomeScan (DiscoverX)) EUB0000045b PLK3
Serine/threonine-protein kinase PLK3, sequence (Q9H4B4 whole entry, looked up): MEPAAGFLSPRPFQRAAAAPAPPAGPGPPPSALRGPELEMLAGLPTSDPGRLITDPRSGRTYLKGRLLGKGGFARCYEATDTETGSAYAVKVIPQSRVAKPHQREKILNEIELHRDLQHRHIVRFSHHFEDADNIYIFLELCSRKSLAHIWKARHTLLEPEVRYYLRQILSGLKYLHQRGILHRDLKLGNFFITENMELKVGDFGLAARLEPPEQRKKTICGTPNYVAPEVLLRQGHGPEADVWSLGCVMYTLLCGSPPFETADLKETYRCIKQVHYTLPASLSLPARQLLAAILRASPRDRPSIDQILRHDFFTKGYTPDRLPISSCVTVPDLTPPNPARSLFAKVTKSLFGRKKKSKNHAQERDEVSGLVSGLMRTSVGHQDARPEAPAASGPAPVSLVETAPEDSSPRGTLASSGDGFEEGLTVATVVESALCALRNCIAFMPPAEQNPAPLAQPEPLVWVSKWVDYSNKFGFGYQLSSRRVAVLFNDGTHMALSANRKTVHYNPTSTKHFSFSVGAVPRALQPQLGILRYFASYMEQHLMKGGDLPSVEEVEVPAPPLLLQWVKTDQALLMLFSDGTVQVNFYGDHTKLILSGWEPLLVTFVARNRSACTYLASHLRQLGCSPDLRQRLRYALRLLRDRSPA

[12] = biological target: Tyrosine-protein kinase Lck (Homo sapiens, UniProt P06239); test: Selectivity interaction (KinomeScan (DiscoverX)) EUB0000045b LCK
Tyrosine-protein kinase Lck, sequence (P06239 2-509 limits assumed): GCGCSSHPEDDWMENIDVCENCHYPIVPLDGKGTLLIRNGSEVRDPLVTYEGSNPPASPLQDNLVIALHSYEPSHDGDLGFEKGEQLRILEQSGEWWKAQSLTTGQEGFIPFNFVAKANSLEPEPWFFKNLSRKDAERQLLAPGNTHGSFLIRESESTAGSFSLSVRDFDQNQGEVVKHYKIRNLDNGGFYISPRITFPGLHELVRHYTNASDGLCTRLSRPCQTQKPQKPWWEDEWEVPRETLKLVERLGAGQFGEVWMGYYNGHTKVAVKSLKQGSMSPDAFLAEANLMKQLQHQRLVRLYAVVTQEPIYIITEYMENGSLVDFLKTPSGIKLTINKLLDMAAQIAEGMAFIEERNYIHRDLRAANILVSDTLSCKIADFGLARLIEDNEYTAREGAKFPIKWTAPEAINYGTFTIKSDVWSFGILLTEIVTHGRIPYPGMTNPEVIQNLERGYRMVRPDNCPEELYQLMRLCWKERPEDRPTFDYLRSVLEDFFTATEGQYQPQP

[13] = biological target: Homeodomain-interacting protein kinase 3 (Homo sapiens, UniProt Q9H422); test: Selectivity interaction (KinomeScan (DiscoverX)) EUB0000655a HIPK3; settings: at 10 µM
Homeodomain-interacting protein kinase 3, sequence (Q9H422 whole entry, looked up): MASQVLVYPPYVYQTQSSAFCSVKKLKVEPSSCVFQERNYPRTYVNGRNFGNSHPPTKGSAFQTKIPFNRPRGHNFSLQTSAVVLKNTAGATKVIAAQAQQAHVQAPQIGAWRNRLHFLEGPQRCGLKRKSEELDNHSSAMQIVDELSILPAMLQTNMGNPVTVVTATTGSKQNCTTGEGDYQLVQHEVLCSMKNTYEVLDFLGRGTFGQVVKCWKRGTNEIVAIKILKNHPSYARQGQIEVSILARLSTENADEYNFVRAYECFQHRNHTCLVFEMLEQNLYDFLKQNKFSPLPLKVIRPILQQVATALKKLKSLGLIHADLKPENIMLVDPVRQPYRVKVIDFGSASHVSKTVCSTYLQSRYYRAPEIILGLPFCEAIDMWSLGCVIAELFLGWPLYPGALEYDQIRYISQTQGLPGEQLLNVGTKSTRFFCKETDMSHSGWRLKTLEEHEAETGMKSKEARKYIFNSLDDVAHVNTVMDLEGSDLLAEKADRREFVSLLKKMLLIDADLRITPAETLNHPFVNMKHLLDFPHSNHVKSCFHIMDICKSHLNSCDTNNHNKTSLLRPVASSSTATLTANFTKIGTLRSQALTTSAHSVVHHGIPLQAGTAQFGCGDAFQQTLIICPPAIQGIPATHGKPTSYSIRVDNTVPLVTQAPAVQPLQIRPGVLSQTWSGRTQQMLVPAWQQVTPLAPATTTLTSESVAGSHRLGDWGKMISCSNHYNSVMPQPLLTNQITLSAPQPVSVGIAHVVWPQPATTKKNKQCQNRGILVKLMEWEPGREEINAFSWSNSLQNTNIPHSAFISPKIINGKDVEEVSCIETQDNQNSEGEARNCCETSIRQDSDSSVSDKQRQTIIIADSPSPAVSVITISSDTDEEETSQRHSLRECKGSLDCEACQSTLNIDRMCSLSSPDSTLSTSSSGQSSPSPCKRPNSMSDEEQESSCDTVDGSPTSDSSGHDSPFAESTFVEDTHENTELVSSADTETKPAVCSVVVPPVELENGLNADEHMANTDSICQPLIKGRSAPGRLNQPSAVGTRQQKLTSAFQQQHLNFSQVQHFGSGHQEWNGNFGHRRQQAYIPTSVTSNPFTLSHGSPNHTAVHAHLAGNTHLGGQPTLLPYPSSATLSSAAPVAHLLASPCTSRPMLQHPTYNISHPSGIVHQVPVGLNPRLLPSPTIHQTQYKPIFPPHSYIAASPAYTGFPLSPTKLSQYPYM

[14] = biological target: Serine/threonine-protein kinase pim-3 (Homo sapiens) (UniProt Q86V86); test: Selectivity interaction (KinomeScan (DiscoverX)) EUB0001619a PIM3; settings: at 1 µM
[15] = biological target: Mitogen-activated protein kinase 3 (Homo sapiens, UniProt P27361); test: Selectivity interaction (SelectScreen profiling (Invitrogen)) EUB0000607a MAPK3; settings: at 2 µM
[16] = biological target: Serine/threonine-protein kinase 26 (Homo sapiens, UniProt Q9P289); test: Selectivity interaction (Kinase panel (KiNativ target engagement assay in Jurkat cells)) EUB0001635a STK26; format: cell-based; settings: Selectivity number of off-targets 0.0, Selectivity number of targets 233.0, Source Knowledge https://www.sciencedirect.com/science/article/pii/S2451945619300674?via%3Dihub, at 1 µM

% of control [1]: 108%
SMILES: CC(=O)Nc1cccc(-n2c(=O)n(C3CC3)c(=O)c3c(Nc4ccc(I)cc4F)n(C)c(=O)c(C)c32)c1

% of inhibition [2]: -0.8%
SMILES: CC[C@@H]1[C@H](F)C(=O)N[C@@H]1COc1nccc2cc(C(N)=O)c(OC)cc12 [ZIMLOVISERTIB]
% of inhibition [3]: -1.1%

% of growth rate [4]: -19.5%
SMILES: CNCCN1CCC(c2cc(CN(C)C(=O)c3cccc(Oc4ccccc4)c3)ccn2)CC1

% of inhibition [5]: -10.1% | % of inhibition [6]: -18.3% | % of inhibition [7]: -3.27%
SMILES: Cn1cc(-n2cnc3c(NCc4nc5cc(Cl)c(Cl)cc5[nH]4)nc(N4CCOCC4)nc32)cn1

SMILES: Nc1cnc(N2CCc3cc(S(=O)(=O)Nc4c(F)cc(Cl)cc4F)cc(N4CCCC4=O)c32)nc1 [TP-020n]
% of control [8]: 71% | % of inhibition [9]: -4.55%

% of inhibition [10]: 41%
SMILES: Cc1ccc(-c2ccc3c(ccc4sc5c(c43)NC[C@@H](C)NC5=O)n2)cn1

SMILES: C=CC(=O)Nc1cc(-n2c(=O)ccc3cnc4ccc(-c5ccc(NS(C)(=O)=O)cc5)cc4c32)ccc1C
% of control ([11]; at 1 µM): 100% | % of control ([11]; at 10 µM): 100% | % of control ([12]; at 1 µM): 89% | % of control ([12]; at 10 µM): 80%

SMILES: CN(C)CCOc1ccc(-c2nc(-c3ccncc3)c(-c3ccc4c(c3)CC/C4=N\O)[nH]2)cc1
% of control [13]: 62%

SMILES: N#Cc1cccc(-c2c[nH]c3ncnc(N4CCOCC4)c23)c1
% of control [14]: 100%

SMILES: CNC(=O)Nc1ccc(-c2nc(N3CC4CCC(C3)O4)c3cnn(C4CCC5(CC4)OCCO5)c3n2)cc1
% of inhibition [15]: 1%

SMILES: C=CC(=O)Nc1ccc(C(=O)Nc2[nH]nc3c2CN(C(=O)N[C@H](CN(C)C)c2ccccc2)C3(C)C)cc1
% of engagement [16]: 26%
